# Measured values taken from PubChem BioAssay (NCI).
#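 The compound was tested at five concentrations on cells cultured in 96-well plates, with a 48-hour exposure period. At the GI50, growth is halved. TGI marks complete inhibition of growth.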
# Experiments:
# Assay in all cases: NCI tumour cell line growth inhibition, 48 h
# A549 NSCLC = tested on: A549 NSCLC
# CAKI-1 renal = tested on: CAKI-1 renal
# HT29 colon = tested on: HT29 colon
# MCF7 breast = tested on: MCF7 breast
# MDA-MB-231 breast = tested on: MDA-MB-231 breast
# NCI-H23 lung = tested on: NCI-H23 lung
# NCI-H522 lung = tested on: NCI-H522 lung
# NCI/ADR-RES ovarian = tested on: NCI/ADR-RES ovarian
# SK-MEL-28 melanoma = tested on: SK-MEL-28 melanoma
# SN12C renal = tested on: SN12C renal
Structure (SMILES),TGI (A549 NSCLC),TGI (CAKI-1 renal),TGI (HT29 colon),TGI (MCF7 breast),TGI (MDA-MB-231 breast),TGI (NCI-H23 lung),TGI (NCI-H522 lung),TGI (NCI/ADR-RES ovarian),TGI (SK-MEL-28 melanoma),TGI (SN12C renal),GI50 (A549 NSCLC),GI50 (CAKI-1 renal),GI50 (HT29 colon),GI50 (MCF7 breast),GI50 (MDA-MB-231 breast),GI50 (NCI-H23 lung),GI50 (NCI-H522 lung),GI50 (NCI/ADR-RES ovarian),GI50 (SK-MEL-28 melanoma),GI50 (SN12C renal)
CCOC(=O)Cc1nc2sc(S(N)(=O)=O)nn2c1Br,> 100 µM,37.2 µM,45.1 µM,> 100 µM,44.6 µM,81.5 µM,39.5 µM,> 100 µM,96.2 µM,52.5 µM,–,–,–,–,–,–,–,–,–,–
O=C1[C@@H]2[C@@H](c3ccccc3)[C@]2(Cl)C(=O)[C@H]2[C@H](c3ccccc3)[C@@]12Cl,> 100 µM,> 100 µM,> 100 µM,> 100 µM,> 100 µM,> 100 µM,> 100 µM,> 100 µM,> 100 µM,> 100 µM,–,–,–,–,–,–,–,–,–,–
CC(=C(C(N)=O)C(N)=O)C1C=C(c2cccs2)CC(c2ccc(Cl)cc2)=C1O (stereo not given),> 100 µM,> 100 µM,> 100 µM,> 100 µM,> 100 µM,> 100 µM,> 100 µM,> 100 µM,> 100 µM,> 100 µM,–,–,–,–,–,–,–,–,–,–
O=c1oc2cc(O)ccc2c(O)c1C(c1cccnc1)c1c(O)c2ccc(O)cc2oc1=O,> 100 µM,> 100 µM,> 100 µM,> 100 µM,> 100 µM,> 100 µM,> 100 µM,> 100 µM,> 100 µM,> 100 µM,–,–,–,–,–,–,–,–,–,–
CC(C)[Si](OC1=CCC[C@H]2NC(=O)[C@@H](Cc3ccccc3)[C@@]12C)(C(C)C)C(C)C,12.6 µM,14.6 µM,12.1 µM,13.4 µM,26.5 µM,18.9 µM,17.4 µM,21.7 µM,13.1 µM,9.85 µM,–,–,–,–,–,–,–,–,–,–
COc1ccc(OC)c(CC2CCc3nc(N)nc(N)c3C2)c1 (stereo not given),> 100 µM,> 100 µM,> 100 µM,32 µM,> 100 µM,> 49.8 µM,25 µM,> 32.4 µM,> 92.5 µM,> 100 µM,–,–,–,–,–,–,–,–,–,–
O=C1/C(=C/c2ccc(Cl)cc2)N=C(c2ccccc2)N1CCc1cccs1,> 100 µM,> 100 µM,> 100 µM,> 100 µM,98.7 µM,> 100 µM,74 µM,> 100 µM,> 100 µM,> 100 µM,31.4 µM,20.4 µM,20.3 µM,18.4 µM,13.6 µM,20 µM,15.3 µM,23.7 µM,62.8 µM,21.1 µM
Brc1ccc2c([C@H]3CN[C@@H](c4c[nH]c5cc(Br)ccc45)CN3)c[nH]c2c1,7.39 µM,11.3 µM,4.01 µM,4 µM,6.65 µM,8.95 µM,3.15 µM,17.1 µM,27.2 µM,12.4 µM,–,–,–,–,–,–,–,–,–,–
Cc1noc2nnn(-c3ccc(Cl)cc3)c(=O)c12,27.7 µM,13 µM,17.2 µM,13.6 µM,25.7 µM,20.5 µM,2.24 µM,29.8 µM,25.5 µM,12.2 µM,–,–,–,–,–,–,–,–,–,–
O=C(/C=C/c1cc(O)c(O)cc1O)OCCc1ccccc1,> 100 µM,78.3 µM,41.6 µM,20.9 µM,38.3 µM,53.1 µM,4.74 µM,71.2 µM,39.3 µM,22.1 µM,–,–,–,–,–,–,–,–,–,–
CCCCCCCCCCCCOP(=O)(O)OCC(N)C(=O)O (stereo not given),> 100 µM,95.8 µM,> 100 µM,> 100 µM,58 µM,> 100 µM,> 100 µM,> 100 µM,> 100 µM,61 µM,–,–,–,–,–,–,–,–,–,–
CC(=O)O[C@@H]1C2=C(C)C=C(O2)[C@H]2O[C@]2(C)C[C@H]2C=C(C(=O)O2)[C@H](OC(C)=O)CC1[C@@]1(C)CO1 (stereo not given in full),> 100 µM,62.8 µM,> 100 µM,44.8 µM,78.8 µM,> 100 µM,12.5 µM,> 100 µM,36 µM,69.8 µM,–,–,–,–,–,–,–,–,–,–
COc1ccc2oc(OC)c(CC=C(C)C)c(=O)c2c1C,> 100 µM,> 100 µM,> 100 µM,> 100 µM,> 100 µM,> 100 µM,> 100 µM,> 100 µM,> 100 µM,> 100 µM,–,–,–,–,–,–,–,–,–,–
CCOC(=O)NC(NC1=NCCS1)(C(=O)OCC)C(F)(F)F (stereo not given),> 100 µM,> 100 µM,> 100 µM,> 100 µM,> 100 µM,> 100 µM,> 100 µM,> 100 µM,> 100 µM,> 100 µM,–,–,–,–,–,–,–,–,–,–
O=C/C=C/c1ccco1,> 100 µM,> 100 µM,> 100 µM,> 100 µM,> 100 µM,> 100 µM,> 100 µM,> 100 µM,> 100 µM,> 100 µM,–,–,–,–,–,–,–,–,–,–
CC1C2CC(C(S(=O)(=O)N3CCOCC3)/C2=N\O)C1(C)C (stereo not given),> 100 µM,> 100 µM,> 100 µM,> 100 µM,> 100 µM,> 100 µM,> 100 µM,> 100 µM,> 100 µM,> 100 µM,–,–,–,–,–,–,–,–,–,–
CCOC(=O)C(Cl)(NC(=O)c1c(F)c(F)c(F)c(F)c1F)C(F)(F)F (stereo not given),> 100 µM,36.4 µM,> 100 µM,> 100 µM,> 100 µM,> 100 µM,54.7 µM,> 100 µM,> 100 µM,> 100 µM,–,–,–,–,–,–,–,–,–,–
